Measured values from publication PMC6225228, “Design, Synthesis and Evaluation of N-pyrazinylbenzamides as Potential Antimycobacterial Agents” (Molecules : A Journal of Synthetic Chemistry and Natural …, 2018).
Converted amounts (≈) assume the structure as drawn. Where two headings read alike, the source gives them in different places.

What was measured:
[1] = tested on: Mycobacterium tuberculosis H37Rv CNCTC My 331/88 (ATCC 27294); assay: Antimycobacterial microdilution MABA, M. tuberculosis; format: cell-based; details: Mycobacterium tuberculosis, read-out: Mtb H37Rv ATCC 27294 MIC, Middlebrook 7H9 with OADC growth supplement, pH = 6.6, MABA
[2] = tested on: Candida glabrata 20/I; assay: Antifungal microdilution broth, CG; format: cell-based; details: Nakaseomyces glabratus, 20/I, read-out: MIC CG
[3] = tested on: Pseudomonas aeruginosa CCM 1961; assay: Antibacterial microdilution broth, PA; format: cell-based; details: Pseudomonas aeruginosa, read-out: MIC PA
[4] = tested on: Aspergillus fumigatus 231; assay: Antifungal microdilution broth, AF; format: cell-based; details: read-out: MIC AF
[5] = tested on: Lichtheimia corymbifera 272; assay: Antifungal microdilution broth, LC; format: cell-based; details: read-out: MIC LC
[6] = tested on: M. avium ssp. avium CNCTC My 80/72 (ATCC 15769); assay: Antimycobacterial microdilution MABA, M. avium; format: cell-based, Mycobacterium avium; details: for MIC: Mycobacterium avium, ATCC15769, pH 6.6, read-out: M. avium ATCC 15769 MIC
[7] = tested on: Candida tropicalis 156; assay: Antifungal microdilution broth, CT; format: cell-based; details: read-out: MIC CT
[8] = tested on: Staphylococcus epidermidis H 6966/08; assay: Antibacterial microdilution broth, SE; format: cell-based; details: Staphylococcus epidermidis, read-out: MIC SE
[9] = tested on: Enterococcus sp. J 14365/08; assay: Antibacterial microdilution broth, EF; format: cell-based; details: Enterococcus, read-out: MIC EF
[10] = tested on: M. kansasii CNCTC My 235/80 (ATCC 12478); assay: Antimycobacterial microdilution MABA, M. kansasii; format: cell-based, Mycobacterium kansasii; details: for MIC: Mycobacterium kansasii, ATCC12478, pH 6.6, read-out: M. kans. ATCC 12478 MIC, Middlebrook 7H9 with OADC, pH 6.6, MABA
[11] = tested on: Candida albicans ATCC 44859; assay: Antifungal microdilution broth, CA; format: cell-based; details: Candida albicans, read-out: MIC CA
[12] = tested on: Trichophyton interdigitale 445; assay: Antifungal microdilution broth, TI; format: cell-based; details: read-out: MIC TI
[13] = tested on: Candida krusei E28; assay: Antifungal microdilution broth, CK; format: cell-based; details: Pichia kudriavzevii, read-out: MIC CK
[14] = tested on: Staphylococcus aureus CCM 4516/08; assay: Antibacterial microdilution broth, SA; format: cell-based; details: Staphylococcus aureus
[15] = tested on: Escherichia coli CCM 4517; assay: Antibacterial microdilution broth, EC; format: cell-based; details: Escherichia coli, read-out: MIC EC
[16] = tested on: Mycobacterium smegmatis CCM 4622 (ATCC 607); assay: Antimycobacterial microdilution, M. smegmatis; format: cell-based; details: Mycolicibacterium smegmatis, read-out: M. smeg. ATCC 607 MIC
[17] = tested on: Staphylococcus aureus H 5996/08 methicillin resistant; assay: microbe, parasite or virus in culture; format: cell-based; details: Staphylococcus aureus, MRSA, read-out: MIC MRSA
[18] = tested on: Trichosporon asahii 1188; assay: Antifungal microdilution broth, TA; format: cell-based; details: read-out: MIC TA
[19] = Aspergillus fumigatus, 231, 24 h
[20] = Aspergillus fumigatus, 231, 48 h
[21] = Lichtheimia corymbifera, 272, 24 h
[22] = Lichtheimia corymbifera, 272, 48 h
[23] = Middlebrook 7H9 with OADC, pH 6.6, MABA
[24] = Trichophyton interdigitale, 445, 72 h
[25] = Trichophyton interdigitale, 445, 120 h
[26] = CCM4516, 24 h, read-out: MIC SA, 24 h
[27] = CCM4516, 48 h, read-out: MIC SA, 48 h
[28] = Trichosporon asahii, 1188, 24 h
[29] = Trichosporon asahii, 1188, 48 h

Row | Compound | melting point [°C] | MIC [1] [mg/L] | MIC ([2]; 24 h) [µM] | MIC ([2]; 48 h) [µM] | MIC ([3]; CCM1961, 72 h) [µM] | MIC ([3]; CCM1961, 120 h) [µM] | MIC [4, 19] [µM] | MIC [4, 20] [µM] | MIC [5, 21] [µM] | MIC [5, 22] [µM] | MIC [6] [mg/L] | MIC ([7]; Candida tropicalis, 156, 24 h) [µM] | MIC ([7]; Candida tropicalis, 156, 48 h) [µM] | MIC ([8]; H6966/08, 24 h) [µM] | MIC ([8]; H6966/08, 48 h) [µM] | MIC ([9]; SP.J14365/08, 24 h) [µM] | MIC ([9]; SP.J14365/08, 48 h) [µM] | MIC [10] [mg/L] | MIC ([11]; ATCC44859, 24 h) [µM] | MIC ([11]; ATCC44859, 48 h) [µM] | other results
1 | O=C(Nc1cnccn1)c1ccccc1 [Compound 1a] | 171.2 to 172 | 100 (≈ 502 µM) | > 500 | > 500 | > 500 | > 500 | > 500 | > 500 | > 500 | > 500 | > 100 | > 500 | > 500 | > 500 | > 500 | > 500 | > 500 | > 100 | 500 (≈ 99.6 µg/mL) | > 500 | M. avium ATCC 15769 MIC [6, 23]: >100 mg/L; M. kans. ATCC 12478 MIC [10, 23]: >100 mg/L; MIC [12, 24]: > 500 µM; MIC [12, 25]: > 500 µM; MIC ([13]; E28, 24 h): > 500 µM; MIC ([13]; E28, 48 h): > 500 µM; MIC [14, 26]: > 500 µM; MIC [14, 27]: > 500 µM; MIC ([15]; CCM4517, 24 h): > 500 µM; MIC ([15]; CCM4517, 48 h): > 500 µM; MIC [16]: ≥ 500 mg/L; MIC ([17]; 24 h): > 500 µM; MIC ([17]; 48 h): > 500 µM; MIC [18, 28]: > 500 µM; MIC [18, 29]: > 500 µM
2 | O=C(Nc1cnccn1)c1ccccc1O [Compound 1b] | 209.9 to 211.5 | > 100 | > 500 | > 500 | > 500 | > 500 | > 500 | > 500 | > 500 | > 500 | > 100 | > 500 | > 500 | > 500 | > 500 | > 500 | > 500 | > 100 | > 500 | > 500 | MIC [12, 24]: 500 µM (≈ 108 µg/mL); MIC [12, 25]: 500 µM (≈ 108 µg/mL); MIC ([13]; E28, 24 h): > 500 µM; MIC ([13]; E28, 48 h): > 500 µM; MIC [14, 26]: > 500 µM; MIC [14, 27]: > 500 µM; MIC ([15]; CCM4517, 24 h): > 500 µM; MIC ([15]; CCM4517, 48 h): > 500 µM; MIC [16]: ≥ 500 mg/L; MIC ([17]; 24 h): > 500 µM; MIC ([17]; 48 h): > 500 µM; MIC [18, 28]: > 500 µM; MIC [18, 29]: > 500 µM
3 | CC(=O)Oc1cccc(C(=O)Nc2cnccn2)c1 [Compound 1c-Ac] | 168.4 to 169.5 | > 100 | > 500 | > 500 | > 500 | > 500 | > 500 | > 500 | > 500 | > 500 | > 100 | > 500 | > 500 | > 500 | > 500 | > 500 | > 500 | > 100 | > 500 | > 500 | MIC [12, 24]: > 500 µM; MIC [12, 25]: > 500 µM; MIC ([13]; E28, 24 h): > 500 µM; MIC ([13]; E28, 48 h): > 500 µM; MIC [14, 26]: > 500 µM; MIC [14, 27]: > 500 µM; MIC ([15]; CCM4517, 24 h): > 500 µM; MIC ([15]; CCM4517, 48 h): > 500 µM; MIC [16]: ≥ 500 mg/L; MIC ([17]; 24 h): > 500 µM; MIC ([17]; 48 h): > 500 µM; MIC [18, 28]: > 500 µM; MIC [18, 29]: > 500 µM
